Results published in US4377578A, “Piperazine derivatives” (priority 1981, dated 1983).

Tests used:
[1] = system: anaphylactic shock in guinea pigs sensitized to ovalbumin; experiment: Anaphylaxis in guinea pigs: protection against death (survival) after ovalbumin challenge; assay type: in vivo, guinea pig; details: Table I-b; estimated ED50, oral, protection against death after i.v. 0.6 mg ovalbumin
Method: The anti-anaphylactic and antihistaminic effects of the subject compounds (I) and salts thereof are studied "in vivo" in guinea pigs.
(§1) Guinea pigs, weighing between 400 and 500 g, are sensitized to ovalbumin by subplantar (s.p.) injection of 0.05 ml of antiserum in the left hind paw. The animals are then starved and orally treated, 24 hours after the sensitization, with saline (=control animals) or a particular dose of the compound under investigation.
The histamine injection (at a dose of 50 μg) was given s.p. in the right hind paw 2 hours after the oral pretreatment with the compound. The diameters of both hind paws are first measured before the histamine injection is given and again 10 minutes thereafter. The animals are challenged intravenously with 0.6 mg of ovalbumin 30 minutes after the histamine injection. All control animals develop tyical primary anaphylactic shock symptoms (coughing, difficult breathing, convulsions) and 85% of these control animals die within 15 minutes after the ovalbumin injection. Protection against death is used as the criterion for possible drug effects and the estimated ED50 -value, i.e. the oral dose whereby the protection is observed in 50% of the guinea pigs, is listed in the tables below.

[2] = system: histamine paw oedema in guinea pigs; experiment: Histamine paw oedema in guinea pigs; assay type: in vivo, guinea pig; details: Table I-b, 2 hours before s.p. histamine 50 μg, oedema below 10 units at 10 minutes
Method: as §1, with “investigation. The histamine injection (at a dose of 50 μg) was given s.p. in the right hind paw 2 hours after the oral pretreatment with the compound.” for “investigation.”

[3] = system: histamine-induced spasms of guinea-pig ileum strips; experiment: Anti-histamine activity in vitro (guinea-pig ileum); assay type: cell-based; details: Table I-b; histamine 0.5 mg/liter, 5 minutes incubation, significant inhibition (50%) of contraction
Method: The histamine-(0.5 mg/liter) induced spasms are recorded Kymographically with an isotonic lever giving a 5-fold magnification.

Substance: 1-[3-{4-[(3-chlorophenyl)phenylmethyl]-1-piperazinyl}propyl]-1H-benzimidazole trihydrochloride.hydrate.hemi-2-propanolate [I-b: M=H, R1=H, (CH2)4, R6=3-Cl, R7=H]
- Anaphylaxis in guinea pigs oral effective dose in mg/kg: Survival [1]: 1.25 mg/kg
- Anaphylaxis in guinea pigs oral effective dose in mg/kg: Histamine oedema [2]: 1.25 mg/kg
- Histamine in "vitro" (ileum) effective conc. [3]: 0.01 mg/L
